# Measurements reported in patent publication US20200087284A1, “[4-(PHENYLSULFONYL)PIPERAZIN-1-YL](1H-1, 2, 3-TRIAZOL-4-YL)METHANONES” (priority 2016, published 2020).
# Biological target: T1, recombinant human AKR1C3 (Homo sapiens, UniProt P42330)
# T1 construct: GST (cleaved yes); made in house; host or cells: E. coli
# T1 sequence (P42330 1-323): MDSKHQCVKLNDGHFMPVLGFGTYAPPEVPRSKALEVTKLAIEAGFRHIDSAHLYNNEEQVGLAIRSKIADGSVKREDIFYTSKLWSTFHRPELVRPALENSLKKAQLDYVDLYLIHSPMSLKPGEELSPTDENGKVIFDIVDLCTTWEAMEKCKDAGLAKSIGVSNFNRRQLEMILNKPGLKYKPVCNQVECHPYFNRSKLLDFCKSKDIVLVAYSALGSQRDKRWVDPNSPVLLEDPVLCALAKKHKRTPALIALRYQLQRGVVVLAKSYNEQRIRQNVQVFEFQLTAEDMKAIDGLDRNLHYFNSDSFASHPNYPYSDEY
# Experiment: AKR1C3-inhibitory activity assay (Coumberone to Coumberol fluorescence)
# Assay type: biochemical
# Settings: recombinant human AKR1C3, 10 μM NADPH, 0.3 μM Coumberone, 22° C., typically 90 min
# Protocol: AKR1C3-Inhibitory Activity Assay
# The AKR1C3-inhibitory activity of the substances of the present invention was measured in the AKR1C3 assay described in the paragraphs below.
# Essentially, the enzyme activity is measured by quantification of the generation of Coumberol from Coumberone (Halim et al. J. AM. CHEM. SOC. 2008, 130:14123-14128 and Yee et al. Proc. Natl. Acad. Sci. USA 2006, 103:13304-13309). In this test, the increase of the highly fluorescent Coumberol by NADPH- (nicotinamide adenine dinucleotide phosphate)-dependent reduction of the non-fluorescent Coumberone by AKR1C3 was determined.
# The enzyme used was recombinant human AKR1C3 (Aldo-keto reductase family 1 member C3; GenBank Accession No. NM_003739). This was expressed in E. coli as GST (glutathione S transferase) fusion protein and purified by glutathione Sepharose affinity chromatography. The GST was removed by digestion with thrombin and subsequent size exclusion chromatography (Dufort, I., Rheault, P., Huang, X F., Soucy, P., and Luu-The, V., Endocrinology 140, 568-574 (1999)).
# For the assay, 50 nI of a 100-fold concentrated solution of the test substance in DMSO were pipetted into a black low-volume 384-well microtiter plate (Greiner Bio-One, Frickenhausen, Germany), 2.5 μl of a solution of AKR1C3 in assay buffer [50 mM potassium phosphate buffer pH 7, 1 mM DTT, 0.0022% (w/v) Pluronic F-127, 0.01% BSA (w/v) and protease inhibitor cocktail (Complete, EDTA-free Protease Inhibitor Cocktail from Roche)] were added and the mixture was incubated for 15 min to allow pre-binding of the substances to the enzyme prior to the enzyme reaction. The enzyme reaction was then started by addition of 2.5 μl of a solution of NADPH (20 μM→final concentration in 5 μl of assay volume is 10 μM) and Coumberone (0.6 μM→final concentration in 5 μl of assay volume is 0.3 μM) in assay buffer, and the resulting mixture was incubated at 22° C. for the reaction time of typically 90 min. The concentration of the AKR1C3 and the reaction time was adapted to the respective activity of the enzyme preparation and adjusted such that the assay was carried out in the linear range. Typical AKR1C3 concentrations were in the region of 1 nM. The reaction was stopped by addition of 2.5 μl of a stop solution consisting of 3 μM EM-1404 as inhibitor (U.S. Pat. No. 6,541,463) in 50 mM HEPES pH7.5 (3 μM EM-1404→final concentration in 7.5 μl of assay volume is 1 μM). The fluorescence of the Coumberole was then measured at 520 nm (excitation at 380 nm) using a suitable measuring instrument (Pherastar from BMG Labtechnologies). The intensity of the fluorescence was used as a measure of the amount of Coumberole formed and thus of the enzyme activity of AKR1C3. The data were normalized (enzyme reaction without inhibitor=0% inhibition; all other assay components, but no enzyme=100% inhibition).
row,SMILES,IC50 [nM]
1,"Cc1ccc(S(=O)(=O)N2C[C@H](C)N(C(=O)c3cnn[nH]3)C[C@H]2C)cc1 [Example 1, {(2S,5R)-2,5-dimethyl-4-[(4-methylphenyl)sulfonyl]piperazin-1-yl}(1H-1,2,3-triazol-5-yl)methanone]",6
2,"C[C@@H]1CN(C(=O)c2cnn[nH]2)[C@@H](C)CN1S(=O)(=O)c1ccc(F)cc1F [Example 2, {(2S,5R)-4-[(2,4-difluorophenyl)sulfonyl]-2,5-dimethylpiperazin-1-yl}(1H-1,2,3-triazol-5-yl)methanone]",3
3,"Cc1ccc(S(=O)(=O)N2C[C@@H](C)N(C(=O)c3c[nH]nn3)[C@@H](C)C2)cc1 [Example 3, {(2R,6S)-2,6-dimethyl-4-[(4-methylphenyl)sulfonyl]piperazin-1-yl}(1H-1,2,3-triazol-4-yl)methanone]",24
4,"C[C@@H]1CN(S(=O)(=O)c2ccc(F)cc2F)C[C@H](C)N1C(=O)c1c[nH]nn1 [Example 4, {(2R,6S)-4-[(2,4-difluorophenyl)sulfonyl]-2,6-dimethylpiperazin-1-yl}(1H-1,2,3-triazol-4-yl)methanone]",12
5,"C[C@@H]1CN(S(=O)(=O)c2ccc(C(F)(F)F)cc2)C[C@H](C)N1C(=O)c1c[nH]nn1 [Example 5, [(2R,6S)-2,6-dimethyl-4-{[4-(trifluoromethyl)phenyl]sulfonyl}piperazin-1-yl](1H-1,2,3-triazol-4-yl)methanone]",107
6,"Cc1ccc(S(=O)(=O)N2CCN(C(=O)c3cnn[nH]3)CC2(C)C)cc1 [Example 6, {3,3-dimethyl-4-[(4-methylphenyl)sulfonyl]piperazin-1-yl}(1H-1,2,3-triazol-5-yl)methanone]",8

# Continued, values first:
row,IC50 [nM],SMILES
1,8,"CCc1ccc(S(=O)(=O)N2CCN(C(=O)c3cnn[nH]3)CC2(C)C)cc1 [Example 7, {4-[(4-ethylphenyl)sulfonyl]-3,3-dimethylpiperazin-1-yl}(1H-1,2,3-triazol-5-yl)methanone]"
2,45,"CC1(C)CN(C(=O)c2cnn[nH]2)CCN1S(=O)(=O)c1ccc(F)cc1F [Example 8, {4-[(2,4-difluorophenyl)sulfonyl]-3,3-dimethylpiperazin-1-yl}(1H-1,2,3-triazol-5-yl)methanone]"
3,11,"CC1(C)CN(C(=O)c2cnn[nH]2)CCN1S(=O)(=O)c1ccc(F)cc1Cl [Example 9, {4-[(2-chloro-4-fluorophenyl)sulfonyl]-3,3-dimethylpiperazin-1-yl}(1H-1,2,3-triazol-5-yl)methanone]"
